Data published in patent publication US10683326B2, “Crystalline salt forms” (Stealth BioTherapeutics Corp., priority 2016, dated 2020).
Counter-ions that a name gives are not always drawn. Where a SMILES comes first, the peptide text is derived from it. [ ]: non-standard residue; d: D form. Dmt = Cc1cc(O)cc(C)c1C[C@H](N)C(=O)O

Columns and labels:
[1] = counterion acid; cited from earlier work
[2] = counterion acid; cited from earlier work; remark: listed apart in the source
[3] = 7-day stability testing (40° C./75% RH, 80° C., ambient temperature and light), XRPD and HPLC; type: physicochemical; conditions: 7 days
Description: (§1) Approximately 30 mg of the tosylate and fumarate salts were subjected to 7-day stability testing under the following conditions: • 40° C./75% RH • 80° C. • Ambient temperature and light After 7 days under the stated conditions, XRPD and HPLC analysis was carried out on the resultant solid material. Salt Disproportionation Studies
as §1, with “light •” for “light”, “Hydration” for “Salt Disproportionation”
The scaled-up tosylate and fumarate salts were subjected to 7-day stability testing at 40° C./75% RH, 80° C. and ambient temperature and light.

[4] = Dynamic Vapor Sorption (DVS); type: physicochemical; conditions: for change in mass (DVS): between 20-90% RH
Description: Approximately 10 mg of sample was placed into a mesh vapor sorption balance pan and loaded into a DVS-1 dynamic vapor sorption balance by Surface Measurement Systems. The sample was subjected to a ramping profile from 40-90% relative humidity (RH) at 10% increments, maintaining the sample at each step until a stable weight had been achieved (99.5% step completion). After completion of the sorption cycle, the sample was dried using the same procedure to 0% RH and then a second sorption cycle back to 40% RH. The weight changes during the sorption/desorption cycles were plotted, allowing the hygroscopic nature of the sample to be determined. XRPD analysis was then carried out on the remaining solid.

[5] = Salt disproportionation studies (slurry in deionized water, pH and XRPD); type: physicochemical; conditions: 20° C.
Description: The scaled-up tosylate and fumarate salts were subjected to salt disproportionation studies at ambient temperature. The following observations and results were obtained during these disproportionation studies: • After stirring the tosylate salt at 20° C. in deionized water for 30 min, pH=2.58.

[6] = Hydration studies in IPA/water at 3 water activities, XRPD; type: physicochemical
physchem = assay: physchem
Description: 25 mL of 0.2 M potassium hydrogen phthalate solution and 2.50 mL of 0.2 M sodium hydroxide solution were diluted to 100 mL using deionized water. The pH was adjusted as required, using either potassium hydrogen phthalate or sodium hydroxide solution.
25 mL of 0.2 M potassium phosphate monobasic solution and 11.20 mL of 0.2 M sodium hydroxide solution were diluted to 100 mL using deionized water. The pH was adjusted as required, using either potassium phosphate monobasic or sodium hydroxide solution.

[7] = Primary salt screen: stability testing of crystalline hits for 72 hours at 40° C./75% RH, post-stability XRPD and HPLC
Description: The primary salt screen was carried out on 35 mg scale in a glovebag under nitrogen using >3 equivalents of the counterions in the appropriate solvent. The contents of the vials were temperature cycled from 30 to 5° C. Any solids were isolated and analyzed by XRFD. • Approximately 35 mg of received material was weighed into each vial, in a glovebag under nitrogen. If amorphous material or counterion isolated, material was returned to vial and solids re-dissolved through addition of an appropriate solvent. Further temperature cycling was then employed, followed by anti-solvent addition and evaporation if required. Solids, if present, were isolated by centrifugation and analyzed by XRPD.

[8] = 40° C./75% RH, listed as fumarate
[9] = 40° C./75% RH, listed as tosylate

In the case of `O=C(O)C[C@H](O)C(=O)O` [L-Malic], the LogP [1] is given as −1.26.
For `CCS(=O)(=O)O` [Ethanesulfonic acid], the LogP [1] is given as −1.36.
For `O=C(O)C(=O)O` [Oxalic], the LogP [1] is given as −1.19.
In the case of `O=C(O)CCCCC(=O)O` [Adipic], the LogP [1] is given as 0.08.
In the case of `CCCCCCCCCCCC(=O)O` [Lauric], the “pKa 1” value [2] is listed as 4.90 and the LogP [1] is listed as 4.6.
For `Cc1cc(O)cc(C)c1C[C@H](NC(=O)[C@H](N)CCCNC(=N)N)C(=O)N[C@@H](CCCCN)C(=O)N[C@@H](Cc1ccccc1)C(N)=O` [Fumarate Pattern 4] (H-[dR][Dmt]KF-NH2), the “Purity by HPLC” value [3, 8] was 97.5%, the “decrease in purity after stability testing” value (shortened to “decrease in purity”) [3, 8] was “ca. 2.4%” and the “Post-stability XRPD analysis” value ([3]; 80° C.) was “loss of crystallinity”. The “decrease in purity” value ([3]; 80° C.) was “ca. 17%”, the “Purity by HPLC” value ([3]; 80° C., listed as Fumarate) was 83.0% and the “Purity by HPLC” value ([3]; ambient temperature and light) was 99.6%. The “Post-stability XRPD analysis” value ([3]; lower temperatures: 40° C./75% RH or ambient conditions) was “unchanged”, the “change in mass (DVS)” value ([4]; listed as fumarate salt) was “ca. 11.5%” and the “Post-DVS XRPD analysis” value ([4]; listed as fumarate salt) was “remained Pattern 4”. For the same molecule, the “hygroscopicity by DVS analysis” value ([4]; listed as fumarate salt) was “hygroscopic”, the pH of slurry ([5]; 30 min, listed as fumarate salt) was 3.50 and the “XRPD analysis of the post-slurry material” value ([5]; 20 h, listed as fumarate salt) was “changed to a new pattern (designated Pattern 5)”. For the same molecule, the pH of slurry ([5]; 20 h, listed as fumarate salt) was 3.48, the “XRPD analysis of the isolated solids after hydration studies” value (“XRPD analysis … after hydration studies” below) ([6]; aw=0.368 and 0.608, 20° C., 24 h) was “Pattern 3” and the “XRPD analysis … after hydration studies” value ([6]; aw=0.911, 20° C., 24 h) was “Pattern 5”. The “Solid Form isolated after solubility study” value (“Solid Form isolated” for short) (physchem; buffer pH 1.2, 20° C., 24 h, listed as Fumarate) was “Fumaric acid”, the “Solid Form isolated” value (physchem; buffer pH 1.2, 20° C., 24 h, listed as fumarate salt) was “fumaric acid only” and the “Solid Form isolated” value (physchem; buffer pH 4.5, 20° C., 24 h, listed as fumarate salt) was “Pattern 5”. For the same molecule, the “Solid Form isolated” value (physchem; buffer pH 6.8, 20° C., 24 h, listed as fumarate salt) was “No solid was isolated”.
For `Cc1ccc(S(=O)(=O)O)cc1` [p-Toluenesulfonic acid], the LogP [1] is listed as 0.93.
For `CC(C)CCC[C@@H](C)[C@H]1CC[C@H]2[C@@H]3CC=C4C[C@@H](OS(=O)(=O)O)CC[C@]4(C)[C@H]3CC[C@]12C` [Cholesteryl sulfate], the LogP [1] is listed as 4.45.
In the case of `Cc1cc(O)cc(C)c1C[C@H](NC(=O)[C@H](N)CCCNC(=N)N)C(=O)N[C@@H](CCCCN)C(=O)N[C@@H](Cc1ccccc1)C(N)=O` [Tosylate Pattern 1] (H-[dR][Dmt]KF-NH2), the “Post-stability XRPD analysis” value ([3]; 40° C./75% RH, 80° C. and ambient temperature and light) is reported as “unchanged”, the “Purity by HPLC” value [3, 9] is reported as 98.5% and the “decrease in purity” value [3, 9] is reported as “ca. 1.3%”. The “Purity by HPLC” value ([3]; 80° C., listed as Tosylate) was 99.4%, the “change in mass (DVS)” value ([4]; listed as tosylate salt) was “ca. 1.3%” and the “Post-DVS XRPD analysis” value ([4]; listed as tosylate salt) was “remained Pattern 1”. For the same molecule, the “hygroscopicity by DVS analysis” value ([4]; listed as tosylate salt) was “slightly hygroscopic”, the pH of slurry ([5]; 30 min, listed as tosylate salt) was 2.58 and the “XRPD analysis of the post-slurry material” value ([5]; 20 h, listed as tosylate salt) was “no change to the input Pattern 1 material”. The pH of slurry ([5]; 20 h, listed as tosylate salt) was 2.53, the “XRPD analysis … after hydration studies” value ([6]; aw=0.368, 0.608 and 0.911, 20° C., 25 h) was “unchanged” and the solubility thermodynamic at 24 h (physchem; aqueous buffer pH 1.2, pH 1.2, Concentration by HPLC (thermodynamic solubility), buffer pH 1.2, 20° C., 24 h) was 23.8 mg/mL. For the same molecule, the solubility at 24 h (physchem; aqueous buffers pH 1.2, 4.5 and 6.8) was roughly 25 mg/mL, the “Solid Form isolated” value (physchem; buffer pH 1.2, 20° C., 24 h, listed as Tosylate) was “Pattern 1” and the “Solid Form isolated” value (physchem; buffer pH 4.5, 20° C., 24 h) was “Pattern 1”. The “Solid Form isolated” value (physchem; buffer pH 6.8, 20° C., 24 h) was “Pattern 1”, the “XRPD analysis of the isolated solids after thermodynamic solubility studies” value (physchem; each buffer solution (pH 1.2, 4.5, 6.8), 20° C., 24 h) was “unchanged” and the “XRPD analysis of samples after stability testing” value ([7]; 40° C./75% RH, 72 hours) was “improved in crystallinity”. The “purity by HPLC analysis of samples after stability testing” value ([7]; 40° C./75% RH, 72 hours) was 80.6%, the “Purity by HPLC (post-stability)” value ([7]; 72 hours at 40° C./75% RH) was 80.6 and the “Same XRPD, post-stability” value ([7]; 72 hours at 40° C./75% RH, P1 = Pattern 1) was “yes”.
For `N[C@@H](CCC(=O)O)C(=O)O` [L-Glutamic acid], the LogP [1] is given as −1.43.
For `O=C(O)/C=C\C(=O)O` [Maleic], the LogP [1] is listed as −0.01.
In the case of `C[C@H](CCC(=O)O)[C@H]1CC[C@H]2[C@@H]3CC[C@@H]4C[C@H](O)CC[C@]4(C)[C@H]3C[C@H](O)[C@]12C` [Deoxycholic acid], the “pKa 1” value [2] is listed as 4.76.
In the case of `O=C(O)c1ccc2ccccc2c1O` [1-Hydroxy-2-naphthoic], the LogP [1] is listed as 3.29.
In the case of `O=C[C@H](O)[C@@H](O)[C@H](O)[C@H](O)C(=O)O` [D-Glucuronic acid], the LogP [1] is given as −1.49.
